{"source": "PubChem BioAssay (NCI)", "test_in_all_cases": "inhibition of tumour cell growth, NCI panel, 48 h", "key": {"DU-145 prostate": {"tested_on": "DU-145 prostate"}, "A549 NSCLC": {"tested_on": "A549 NSCLC"}, "MALME-3M melanoma": {"tested_on": "MALME-3M melanoma"}, "SNB-75 CNS": {"tested_on": "SNB-75 CNS"}, "UO-31 renal": {"tested_on": "UO-31 renal"}, "A498 renal": {"tested_on": "A498 renal"}, "SW-620 colon": {"tested_on": "SW-620 colon"}, "SK-MEL-5 melanoma": {"tested_on": "SK-MEL-5 melanoma"}, "TK-10 renal": {"tested_on": "TK-10 renal"}, "PC-3 prostate": {"tested_on": "PC-3 prostate"}, "IGROV1 ovarian": {"tested_on": "IGROV1 ovarian"}, "NCI-H226 lung": {"tested_on": "NCI-H226 lung"}, "SNB-19 CNS": {"tested_on": "SNB-19 CNS"}, "KM12 colon": {"tested_on": "KM12 colon"}, "NCI-H460 lung": {"tested_on": "NCI-H460 lung"}, "T-47D breast": {"tested_on": "T-47D breast"}, "MDA-MB-435": {"tested_on": "MDA-MB-435"}, "MCF7 breast": {"tested_on": "MCF7 breast"}, "OVCAR-8 ovarian": {"tested_on": "OVCAR-8 ovarian"}, "EKVX NSCLC": {"tested_on": "EKVX NSCLC"}, "SK-MEL-28 melanoma": {"tested_on": "SK-MEL-28 melanoma"}, "HCT-116 colon": {"tested_on": "HCT-116 colon"}, "HOP-62 NSCLC": {"tested_on": "HOP-62 NSCLC"}, "RXF 393 renal": {"tested_on": "RXF 393 renal"}, "BT-549 breast": {"tested_on": "BT-549 breast"}, "OVCAR-5 ovarian": {"tested_on": "OVCAR-5 ovarian"}, "MOLT-4 leukemia": {"tested_on": "MOLT-4 leukemia"}, "786-0 renal": {"tested_on": "786-0 renal"}, "UACC-62 melanoma": {"tested_on": "UACC-62 melanoma"}, "NCI/ADR-RES ovarian": {"tested_on": "NCI/ADR-RES ovarian"}, "SK-MEL-2 melanoma": {"tested_on": "SK-MEL-2 melanoma"}, "SF-539 CNS": {"tested_on": "SF-539 CNS"}, "HL-60(TB) leukemia": {"tested_on": "HL-60(TB) leukemia"}, "SK-OV-3 ovarian": {"tested_on": "SK-OV-3 ovarian"}, "ACHN renal": {"tested_on": "ACHN renal"}, "HT29 colon": {"tested_on": "HT29 colon"}, "MDA-MB-231 breast": {"tested_on": "MDA-MB-231 breast"}, "COLO 205 colon": {"tested_on": "COLO 205 colon"}, "SF-295 CNS": {"tested_on": "SF-295 CNS"}, "M14 melanoma": {"tested_on": "M14 melanoma"}, "SF-268 CNS": {"tested_on": "SF-268 CNS"}, "HCT-15 colon": {"tested_on": "HCT-15 colon"}, "LOX IMVI melanoma": {"tested_on": "LOX IMVI melanoma"}, "OVCAR-4 ovarian": {"tested_on": "OVCAR-4 ovarian"}, "U251 CNS": {"tested_on": "U251 CNS"}, "NCI-H23 lung": {"tested_on": "NCI-H23 lung"}, "K-562 leukemia": {"tested_on": "K-562 leukemia"}, "HS 578T breast": {"tested_on": "HS 578T breast"}, "CAKI-1 renal": {"tested_on": "CAKI-1 renal"}, "OVCAR-3 ovarian": {"tested_on": "OVCAR-3 ovarian"}, "NCI-H522 lung": {"tested_on": "NCI-H522 lung"}, "SN12C renal": {"tested_on": "SN12C renal"}, "UACC-257 melanoma": {"tested_on": "UACC-257 melanoma"}, "RPMI-8226 leukemia": {"tested_on": "RPMI-8226 leukemia"}, "SR leukemia": {"tested_on": "SR leukemia"}, "HOP-92 NSCLC": {"tested_on": "HOP-92 NSCLC"}}, "note": "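Results reflect a 48-hour exposure of cells in 96-well plates to compound at five concentrations. TGI marks complete inhibition of growth.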"}
{"smiles": "N#Cc1cc2c(cc1Cl)Sc1nccn1S2(=O)=O", "values": [{"measurement": "TGI", "setting": "DU-145 prostate", "value": 6.18, "unit": "µM"}, {"measurement": "TGI", "setting": "A549 NSCLC", "value": 28.7, "unit": "µM"}, {"measurement": "TGI", "setting": "MALME-3M melanoma", "value": 22.2, "unit": "µM"}, {"measurement": "TGI", "setting": "SNB-75 CNS", "value": 20.4, "unit": "µM"}, {"measurement": "TGI", "setting": "UO-31 renal", "value": 10.7, "unit": "µM"}, {"measurement": "TGI", "setting": "A498 renal", "value": 33, "unit": "µM"}, {"measurement": "TGI", "setting": "SW-620 colon", "value": 14.4, "unit": "µM"}, {"measurement": "TGI", "setting": "SK-MEL-5 melanoma", "value": 22.6, "unit": "µM"}, {"measurement": "TGI", "setting": "TK-10 renal", "value": 28, "unit": "µM"}, {"measurement": "TGI", "setting": "PC-3 prostate", "value": 8.93, "unit": "µM"}, {"measurement": "TGI", "setting": "IGROV1 ovarian", "value": 13.6, "unit": "µM"}, {"measurement": "TGI", "setting": "NCI-H226 lung", "value": 18, "unit": "µM"}, {"measurement": "TGI", "setting": "SNB-19 CNS", "value": 24.6, "unit": "µM"}, {"measurement": "TGI", "setting": "KM12 colon", "value": 20.7, "unit": "µM"}, {"measurement": "TGI", "setting": "NCI-H460 lung", "value": 32.2, "unit": "µM"}, {"measurement": "TGI", "setting": "T-47D breast", "value": 8.57, "unit": "µM"}, {"measurement": "TGI", "setting": "MDA-MB-435", "value": 17.5, "unit": "µM"}, {"measurement": "TGI", "setting": "MCF7 breast", "value": "> 23.4", "unit": "µM"}, {"measurement": "TGI", "setting": "OVCAR-8 ovarian", "value": 8.9, "unit": "µM"}, {"measurement": "TGI", "setting": "EKVX NSCLC", "value": 35.9, "unit": "µM"}, {"measurement": "TGI", "setting": "SK-MEL-28 melanoma", "value": 7.33, "unit": "µM"}, {"measurement": "TGI", "setting": "HCT-116 colon", "value": 4.03, "unit": "µM"}, {"measurement": "TGI", "setting": "HOP-62 NSCLC", "value": 10.8, "unit": "µM"}, {"measurement": "TGI", "setting": "RXF 393 renal", "value": 15.5, "unit": "µM"}, {"measurement": "TGI", "setting": "BT-549 breast", "value": 13, "unit": "µM"}, {"measurement": "TGI", "setting": "OVCAR-5 ovarian", "value": 27.4, "unit": "µM"}, {"measurement": "TGI", "setting": "MOLT-4 leukemia", "value": 2.54, "unit": "µM"}, {"measurement": "TGI", "setting": "786-0 renal", "value": 28.8, "unit": "µM"}, {"measurement": "TGI", "setting": "UACC-62 melanoma", "value": 7.32, "unit": "µM"}, {"measurement": "TGI", "setting": "NCI/ADR-RES ovarian", "value": 3.9, "unit": "µM"}, {"measurement": "TGI", "setting": "SK-MEL-2 melanoma", "value": 12.8, "unit": "µM"}, {"measurement": "TGI", "setting": "SF-539 CNS", "value": 12.2, "unit": "µM"}, {"measurement": "TGI", "setting": "HL-60(TB) leukemia", "value": 16.6, "unit": "µM"}, {"measurement": "TGI", "setting": "SK-OV-3 ovarian", "value": 18.1, "unit": "µM"}, {"measurement": "TGI", "setting": "ACHN renal", "value": 4.64, "unit": "µM"}, {"measurement": "TGI", "setting": "HT29 colon", "value": 3.91, "unit": "µM"}, {"measurement": "TGI", "setting": "MDA-MB-231 breast", "value": 12.4, "unit": "µM"}, {"measurement": "TGI", "setting": "COLO 205 colon", "value": 31.5, "unit": "µM"}, {"measurement": "TGI", "setting": "SF-295 CNS", "value": 12.2, "unit": "µM"}, {"measurement": "TGI", "setting": "M14 melanoma", "value": 4.02, "unit": "µM"}, {"measurement": "TGI", "setting": "SF-268 CNS", "value": 13, "unit": "µM"}, {"measurement": "TGI", "setting": "HCT-15 colon", "value": 3.28, "unit": "µM"}, {"measurement": "TGI", "setting": "LOX IMVI melanoma", "value": 3.19, "unit": "µM"}, {"measurement": "TGI", "setting": "OVCAR-4 ovarian", "value": 22.1, "unit": "µM"}, {"measurement": "TGI", "setting": "U251 CNS", "value": 3.21, "unit": "µM"}, {"measurement": "TGI", "setting": "NCI-H23 lung", "value": 3.35, "unit": "µM"}, {"measurement": "TGI", "setting": "K-562 leukemia", "value": 17.2, "unit": "µM"}, {"measurement": "TGI", "setting": "HS 578T breast", "value": 8.37, "unit": "µM"}, {"measurement": "TGI", "setting": "CAKI-1 renal", "value": 3.6, "unit": "µM"}, {"measurement": "TGI", "setting": "OVCAR-3 ovarian", "value": 2.13, "unit": "µM"}, {"measurement": "TGI", "setting": "NCI-H522 lung", "value": 4.11, "unit": "µM"}, {"measurement": "TGI", "setting": "SN12C renal", "value": 20.8, "unit": "µM"}, {"measurement": "TGI", "setting": "UACC-257 melanoma", "value": 5.81, "unit": "µM"}, {"measurement": "TGI", "setting": "RPMI-8226 leukemia", "value": 20.8, "unit": "µM"}, {"measurement": "TGI", "setting": "SR leukemia", "value": 3.54, "unit": "µM"}, {"measurement": "TGI", "setting": "HOP-92 NSCLC", "value": 15.3, "unit": "µM"}]}
